These results are taken from patent US20100093756A1, “HETEROARYL SUBSTITUTED THIENO[2,3-d]PYRIMIDINE AND THEIR USE AS ADENOSINE A2a RECEPTOR ANTAGONISTS” (priority 2008, published 2010).

Where a name gives a salt, the structure may show the parent alone.

Test [1] concerns the target T1, human adenosine A1 receptor (Homo sapiens, UniProt P30542).
T1 construct: expressed in transfected cells; host or cells: CHO-K1
T1 sequence (P30542 1-326): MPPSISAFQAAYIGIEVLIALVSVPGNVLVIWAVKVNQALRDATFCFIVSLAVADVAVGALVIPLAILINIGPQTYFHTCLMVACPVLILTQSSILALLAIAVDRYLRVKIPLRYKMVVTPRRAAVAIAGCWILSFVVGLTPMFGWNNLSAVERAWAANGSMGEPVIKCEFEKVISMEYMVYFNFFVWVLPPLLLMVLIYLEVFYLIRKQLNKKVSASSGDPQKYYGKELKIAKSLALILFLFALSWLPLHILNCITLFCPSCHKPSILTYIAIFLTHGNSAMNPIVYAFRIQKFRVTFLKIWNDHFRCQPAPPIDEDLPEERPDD
Nature of the test: Adenosine A1 Receptor Functional Assay (A1GAL2). Particulars: CHO-K1 cells, cAMP inducible beta-galactosidase reporter, 4 nM r-PIA/1 uM Forskolin agonist challenge. Format: cell-based. Here is the method:
Adenosine A1 Receptor Functional Assay (A1GAL2)
To initiate the functional assay, cryopreserved CHO-K1 cells overexpressing the human adenosine A1 receptor and containing a cAMP inducible beta-galactosidase reporter gene were thawed, centrifuged, DMSO containing media removed, and then seeded with fresh culture media into clear 384-well tissue culture treated plates (BD #353961) at a concentration of 10K cells/well. Prior to assay, these plates were cultured for two days at 37° C., 5% CO2, 90% Rh. On the day of the functional assay, culture media was removed and replaced with 45 uL assay medium (Hams/F-12 Modified (Mediatech #10-080CV) supplemented w/0.1% BSA). Test compounds were diluted and 11 point curves created at a 1000× concentration in 100% DMSO. Immediately after addition of assay media to the cell plates, 50 nL of the appropriate test compound antagonist or agonist control curves were added to cell plates using a Cartesian Hummingbird. Compound curves were allowed to incubate at room temperature on cell plates for approximately 15 minutes before addition of a 4 nM r-PIA (Sigma P4532)/1 uM Forskolin (Sigma F3917) agonist challenge (5 uL volume). A control curve of r-PIA in 1 uM Forskolin, a DMSO/Media control, and a single dose of Forskolin were also included on each plate. After additions, cell plates were allowed to incubate at 37° C., 5% CO2, 90% Rh for 5.5-6 hours. After incubation, media was removed, and cell plates were washed 1×50 uL with DPBS w/o Ca & Mg (Mediatech 21-031-CV). Into dry wells, 20 uL of 1× Reporter Lysis Buffer (Promega E3971 (diluted in dH2O from 5× stock)) was added to each well and plates frozen at −20° C. overnight. For β-galactosidase enzyme colorimetric assay, plates were thawed out at room temperature and 20 μL 2× assay buffer (Promega) was added to each well. Color was allowed to develop at 37° C., 5% CO2, 90% Rh for 1-1.5 h or until reasonable signal appeared. The colorimetric reaction was stopped with the addition of 60 μL/well 1M sodium carbonate. Plates were counted at 405 nm on a SpectraMax Microplate Reader (Molecular Devices). Data was analyzed in Microsoft Excel and IC/EC50 curves were fit using a standardized macro.

Test [2] has as its target T2, human adenosine A2a receptor (Homo sapiens, UniProt P29274).
T2 construct: expressed in transfected cells; host or cells: CHO-K1
Put plainly: Adenosine A2a Receptor Functional Assay (A2AGAL2). Format: cell-based. Particulars: CHO-K1 cells, cAMP inducible beta-galactosidase reporter, 15 nM NECA agonist challenge. Here is the method:
Adenosine A2a Receptor Functional Assay (A2AGAL2)
To initiate the functional assay, cryopreserved CHO-K1 cells overexpressing the human adenosine A2a receptor and containing a cAMP inducible beta-galactosidase reporter gene were thawed, centrifuged, DMSO containing media removed, and then seeded with fresh culture media into clear 384-well tissue culture treated plates (BD #353961) at a concentration of 10K cells/well. Prior to assay, these plates were cultured for two days at 37° C., 5% CO2, 90% Rh. On the day of the functional assay, culture media was removed and replaced with 45 uL assay medium (Hams/F-12 Modified (Mediatech #10-080CV) supplemented w/0.1% BSA). Test compounds were diluted and 11 point curves created at a 1000× concentration in 100% DMSO. Immediately after addition of assay media to the cell plates, 50 nL of the appropriate test compound antagonist or agonist control curves were added to cell plates using a Cartesian Hummingbird. Compound curves were allowed to incubate at room temperature on cell plates for approximately 15 minutes before addition of a 15 nM NECA (Sigma E2387) agonist challenge (5 uL volume). A control curve of NECA, a DMSO/Media control, and a single dose of Forskolin (Sigma F3917) were also included on each plate. After additions, cell plates were allowed to incubate at 37° C., 5% CO2, 90% Rh for 5.5-6 hours. After incubation, media was removed, and cell plates were washed 1×50 uL with DPBS w/o Ca & Mg (Mediatech 21-031-CV). Into dry wells, 20 uL of 1× Reporter Lysis Buffer (Promega E3971 (diluted in dH2O from 5× stock)) was added to each well and plates frozen at −20° C. overnight. For β-galactosidase enzyme colorimetric assay, plates were thawed out at room temperature and 20μL 2× assay buffer (Promega) was added to each well. Color was allowed to develop at 37° C., 5% CO2, 90% Rh for 1-1.5 h or until reasonable signal appeared. The calorimetric reaction was stopped with the addition of 60 μL/well 1M sodium carbonate. Plates were counted at 405 nm on a SpectraMax Microplate Reader (Molecular Devices). Data was analyzed in Microsoft Excel and IC/EC50 curves were fit using a standardized macro.

T2 sequence (P29274 whole entry): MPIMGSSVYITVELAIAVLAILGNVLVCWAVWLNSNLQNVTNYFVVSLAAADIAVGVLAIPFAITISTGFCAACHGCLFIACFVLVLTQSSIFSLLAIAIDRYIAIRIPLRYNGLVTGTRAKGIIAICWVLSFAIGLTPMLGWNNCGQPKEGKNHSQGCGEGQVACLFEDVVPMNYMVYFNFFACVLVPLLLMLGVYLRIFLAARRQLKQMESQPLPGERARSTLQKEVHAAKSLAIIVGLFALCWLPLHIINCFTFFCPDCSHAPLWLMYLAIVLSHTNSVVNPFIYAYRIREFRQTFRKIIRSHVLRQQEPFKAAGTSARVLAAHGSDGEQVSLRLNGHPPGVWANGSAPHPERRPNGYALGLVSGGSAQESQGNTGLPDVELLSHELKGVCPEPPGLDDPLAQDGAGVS

For `Nc1nc(-c2ccc(C3CC3)o2)nc2sc(Cc3cccnc3)cc12` [Example 19, 2-(5-Cyclopropyl-furan-2-yl)-6-pyridin-3-ylmethyl-thieno[2,3-d]pyrimidin-4-ylamine], the results for the Ki in test [1] and in test [2] were 579 nM and 409 nM, respectively.

On to `Nc1nc(-c2ccc(C(F)F)o2)nc2sc(C(=O)c3ncccc3F)cc12` [Example 25, [4-Amino-2-(5-difluoromethyl-furan-2-yl)-thieno[2,3-d]pyrimidin-6-yl]-(3-fluoro-pyridin-2-yl)-methanone], for which the Ki in test [1] was 838 nM; in test [2] it was 24.9 nM.

Turning to `Nc1nc(-c2ncco2)nc2sc(Cc3ccccn3)cc12` [Example 3, 2-Oxazol-2-yl-6-pyridin-2-ylmethyl-thieno[2,3-d]pyrimidin-4-ylamine hydrochloride], the Ki is 353 nM in test [1] and 6.68 nM in test [2].

`N#Cc1cccc(-c2nc(N)c3cc(Cc4cccnc4)sc3n2)n1` [Example 21, 6-(4-Amino-6-pyridin-3-ylmethyl-thieno[2,3-d]pyrimidin-2-yl)-pyridine-2-carbonitrile]: the Ki in test [1] was determined as 28.2 nM; in test [2], 5.25 nM.

In the case of `Nc1nc(-c2ccc(C(F)F)o2)nc2sc(Cc3ccccn3)cc12` [Example 35, 2-(5-Difluoromethyl-furan-2-yl)-6-pyridin-2-ylmethyl-thieno[2,3-d]pyrimidin-4-ylamine], the results for the Ki in test [1] and in test [2] were 61.9 nM and 4.73 nM, respectively.

Take `Cc1ccc(-c2nc(N)c3cc(Cc4ccccn4)sc3n2)o1` [Example 16, 2-(5-Methyl-furan-2-yl)-6-pyridin-2-ylmethyl-thieno[2,3-d]pyrimidin-4-ylamine]: the Ki turned out to be 29.9 nM in test [1] and 1.18 nM in test [2].

For the molecule `Nc1nc(-c2ccc(C(F)F)o2)nc2sc(C(O)c3ncccc3O)cc12` (stereo not shown) [Example 34, 2-{[4-Amino-2-(5-difluoromethyl-furan-2-yl)-thieno[2,3-d]pyrimidin-6-yl]-hydroxy-methyl}-pyridin-3-ol], the Ki came out at 111 nM in test [1] and 4.29 nM in test [2].

Consider `Nc1nc(-c2ccc(C(F)F)o2)nc2sc(C(O)c3ccccn3)cc12` (stereo not shown) [Example 31, [4-Amino-2-(5-difluoromethyl-furan-2-yl)-thieno[2,3-d]pyrimidin-6-yl]-pyridin-2-yl-methanol], for which the Ki in test [1] came to 46.9 nM; in test [2], 4.82 nM.

`Nc1nc(-c2ccc(C(F)F)o2)nc2sc(Cc3ncccc3F)cc12` [Example 24, 2-(5-Difluoromethyl-furan-2-yl)-6-(3-fluoro-pyridin-2-ylmethyl)-thieno[2,3-d]pyrimidin-4-ylamine]: the figures for the Ki in test [1] and in test [2] were 92.6 nM and 6.21 nM, respectively.

As to `Cc1csc(-c2nc(N)c3cc(Cc4ccccn4)sc3n2)n1` [Example 17, 2-(4-Methyl-thiazol-2-yl)-6-pyridin-2-ylmethyl-thieno[2,3-d]pyrimidin-4-ylamine], the figures for the Ki in test [1] and in test [2] were 100 nM and 7.09 nM, respectively.

Turning to `Nc1nc(-c2ccc(C(F)F)o2)nc2sc(C(O)c3ncccc3Br)cc12` (stereo not shown) [Example 32, [4-Amino-2-(5-difluoromethyl-furan-2-yl)-thieno[2,3-d]pyrimidin-6-yl]-(3-bromo-pyridin-2-yl)-methanol], the inhibition constant (Ki) amounted to 23.5 nM in test [1] and 1.62 nM in test [2].

`Nc1nc(-c2cnco2)nc2sc(Cc3ccccn3)cc12` [Example 15, 2-Oxazol-5-yl-6-pyridin-2-ylmethyl-thieno[2,3-d]pyrimidin-4-ylamine]: the Ki is 172 nM in test [1] and 9.66 nM in test [2].

`Nc1nc(-c2ncco2)nc2sc(Cc3cccnc3)cc12` [Example 18, 2-Oxazol-2-yl-6-pyridin-3-ylmethyl-thieno[2,3-d]pyrimidin-4-ylamine]: the Ki in test [1] stood at 489 nM; in test [2] it was 30 nM.

Consider “6-(6-Chloro-pyridin-3-ylmethyl)-2-(5-methyl-furan-2-yl)-thieno[2,3-d]pyrimidin-4-ylamine [Example 1]”, for which the values for the inhibition constant (Ki) in test [1] and in test [2] were 1590 nM and 126 nM, respectively.

Consider `Nc1nc(-c2ccc(C(F)F)o2)nc2sc(Cc3ncccc3Br)cc12` [Example 33, 6-(3-Bromo-pyridin-2-ylmethyl)-2-(5-difluoromethyl-furan-2-yl)-thieno[2,3-d]pyrimidin-4-ylamine], for which the Ki in test [1] amounted to 21.2 nM; in test [2], 2.18 nM.

Turning to `Nc1nc(-c2ccc(C3CC3)o2)nc2sc(Cc3ccccn3)cc12` [Example 20, hydrochloride], the figures for the inhibition constant Ki in test [1] and in test [2] were 337 nM and 130 nM, respectively.

As for `COc1cccnc1C(O)c1cc2c(N)nc(-c3ccc(C(F)F)o3)nc2s1` (stereo not shown) [Example 29, [4-Amino-2-(5-difluoromethyl-furan-2-yl)-thieno[2,3-d]pyrimidin-6-yl]-(3-methoxy-pyridin-2-yl)-methanol], the Ki is 24.9 nM in test [1] and 2.39 nM in test [2].

On to `COc1cccnc1Cc1cc2c(N)nc(-c3ccc(C(F)F)o3)nc2s1` [Example 37, 2-(5-Difluoromethyl-furan-2-yl)-6-(3-methoxy-pyridin-2-ylmethyl)-thieno[2,3-d]pyrimidin-4-ylamine], for which the Ki is 32.6 nM in test [1] and 2.28 nM in test [2].

In the case of `Nc1nc(-c2ccc(C(F)F)o2)nc2sc(C(O)c3ncccc3F)cc12` (stereo not shown) [Example 23, [4-Amino-2-(5-difluoromethyl-furan-2-yl)-thieno[2,3-d]pyrimidin-6-yl]-(3-fluoro-pyridin-2-yl)-methanol], the Ki in test [1] was 59.5 nM; in test [2], 3.77 nM.

Take `CC(O)(c1ccccn1)c1cc2c(N)nc(-c3ccc(C(F)F)o3)nc2s1` (stereo not shown) [Example 36, 1-[4-Amino-2-(5-difluoromethyl-furan-2-yl)-thieno[2,3-d]pyrimidin-6-yl]-1-pyridin-2-yl-ethanol]: the Ki was determined as 267 nM in test [1] and 36 nM in test [2].

By Ki is commonly meant a dissociation constant, usually derived from enzyme kinetics or from competition with a known ligand. Lower therefore signals tighter binding.
